{
  "source": "patent US20110123445A1",
  "about": "“TREATMENT MONITORING” (priority 2008, published 2011)",
  "origin": "cited, not measured here",
  "key": {"ERK phosphorylation": {"tested_on": "ERK phosphorylation", "conditions": "at the recommended phase II dose; Adjei et al 2008"}, "[1]": {"conditions": "phase I trial, 57 cancer patients; Adjei et al 2008"}, "tumour growth": {"tested_on": "tumour growth", "conditions": "Sebolt-Leopold et al 1999, 2004"}, "MEK": {"tested_on": "MEK", "conditions": "Swiss 3T3 cells; Alessi et al 1995"}, "phosphorylated ERK": {"tested_on": "phosphorylated ERK", "conditions": "phase II studies; all tumour types, including melanoma, breast, colon, and lung"}},
  "data": [
    {"smiles": "Cn1cnc2c(F)c(Nc3ccc(Br)cc3Cl)c(C(=O)NOCCO)cc21", "note": "[AZD6244]", "values": [
      {"measurement": "inhibition of ERK phosphorylation", "setting": "ERK phosphorylation", "result": "demonstrable inhibition"},
      {"measurement": "tolerability", "setting": "[1]", "result": "well tolerated"}
    ]},
    {"smiles": "O=C(NOCC1CC1)c1ccc(F)c(F)c1Nc1ccc(I)cc1Cl", "note": "[PD184352]", "values": [
      {"measurement": "inhibition of tumour growth in vivo", "setting": "tumour growth", "result": "inhibit tumour growth in vivo"}
    ]},
    {"smiles": "COc1cccc(-c2cc(=O)c3ccccc3o2)c1N", "note": "[PD098059]", "values": [
      {"measurement": "suppression of MEK activation by a variety of agonists", "setting": "MEK", "result": "80-90%"}
    ]},
    {"smiles": "O=C(NOC[C@H](O)CO)c1ccc(F)c(F)c1Nc1ccc(I)cc1F", "note": "[PD0325901]", "values": [
      {"measurement": "phosphorylated ERK suppression in biopsied tumour tissue", "setting": "phosphorylated ERK", "result": "phosphorylated ERK suppression at all dose levels"}
    ]}
  ]
}
